The results in this text go back to ChEMBL document CHEMBL1201862, “PubChem BioAssay data set” (2004).

Test systems include 786-0; A549; COLO 205; EKVX; HT-29; Hs-578T; IGROV-1; MCF7; MDA-N; Malme-3M; NCI-H226; NCI-H522; OVCAR-3; OVCAR-8; PC-3; SNB-75; SR; TK-10; U-251; SF-539.
What all share (experiment): DTP human tumour cell line panel, 48 h

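Where inhibition never reached the appropriate level, the endpoint shown equals the highest concentration tested. Otherwise, values were interpolated linearly from a five-concentration, 48-hour dose response in 96-well plates. Abbreviation: GI50, concentration required for 50% inhibition of growth.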 Active and inactive are the calls of the source. No stated cut-off is given here; in the data, active = GI50 up to about 1.1 µM and inactive = higher.

In general, GI50 refers to the concentration that inhibits growth by half. For the compound `CCCCCCNC(=O)c1cc(CCc2cc(O)ccc2O)ccc1O`, the GI50 in the test on 786-0 was 2.04 µM (inactive); in the test on A549, 7.83 µM (inactive); in the test on COLO 205, 10.9 µM (inactive); with EKVX, 5.75 µM (inactive); in the test with HT-29, 20.1 µM (inactive); in the test with Hs-578T it was 3.59 µM (inactive). Further, the GI50 is 2.1 µM (inactive) in the test with IGROV-1; 3.25 µM (inactive) in the test with MCF7; 2.66 µM (inactive) with MDA-N; 2.35 µM (inactive) in the test on Malme-3M; 4.23 µM (inactive) in the test with NCI-H226; 0.916 µM (active) in the test on NCI-H522. For the same compound, the GI50 in the test with OVCAR-3 was 2.3 µM (inactive); in the test on OVCAR-8, 3.56 µM (inactive); in the test with PC-3 it was 2.18 µM (inactive); in the test with SNB-75 it was 4.93 µM (inactive); with SR, 2.23 µM (inactive); in the test with TK-10, 2.96 µM (inactive). Moreover, the GI50 in the test with U-251 is 2.3 µM (inactive).

For `OCCN(/N=C\c1ccc2ccccc2c1)C1=NCCN1`, the GI50 in the test on 786-0 is 25.2 µM (inactive); in the test on A549 it was 59.2 µM (inactive); with COLO 205 it was 17.9 µM (inactive); in the test with EKVX it was 40.5 µM (inactive); in the test with HT-29 it was 27.5 µM (inactive); with Hs-578T it was 36.1 µM (inactive). In addition, the GI50 with IGROV-1 was 35.1 µM (inactive); in the test with MCF7 it was 36.1 µM (inactive); with MDA-N, 17.2 µM (inactive); in the test with Malme-3M it was 15.6 µM (inactive); with NCI-H226, 12.9 µM (inactive); in the test with OVCAR-3, 23.2 µM (inactive). Besides, the GI50 is 48.4 µM (inactive) with OVCAR-8; 24.9 µM (inactive) in the test on PC-3; 21 µM (inactive) with SF-539; 20.7 µM (inactive) with SNB-75; 25.6 µM (inactive) in the test with SR; 37.7 µM (inactive) in the test with TK-10. In addition, in the test on U-251, the GI50 is 24.9 µM (inactive).

For the compound `Brc1ccc(C2C3CSc4ccccc4C3=NN2c2ccccc2)cc1` (stereo not given), the GI50 in the test on 786-0 was > 100 µM (inactive); with A549, 56.9 µM (inactive); in the test on COLO 205, 97.1 µM (inactive); in the test on HT-29 it was 78.2 µM (inactive); in the test on Hs-578T, > 100 µM (inactive); in the test with IGROV-1, 74.8 µM (inactive). Besides, the GI50 is 14.5 µM (inactive) in the test with MCF7; > 100 µM (inactive) in the test with MDA-N; > 100 µM (inactive) in the test on Malme-3M; > 100 µM (inactive) in the test with NCI-H226; > 100 µM (inactive) in the test with OVCAR-3; 62.1 µM (inactive) in the test with OVCAR-8. The GI50 is 43.8 µM (inactive) with PC-3; 59 µM (inactive) in the test with SF-539; 69 µM (inactive) with SNB-75; 44.2 µM (inactive) in the test with SR; > 100 µM (inactive) in the test with TK-10; 54.2 µM (inactive) with U-251.

`COC(=O)C1(Cc2ccccc2)Cc2ccccc2C1`: the GI50 is 22.7 µM (inactive) with 786-0; 26.7 µM (inactive) in the test with A549; 19.1 µM (inactive) in the test on COLO 205; 9.84 µM (inactive) in the test on EKVX; 20.4 µM (inactive) with HT-29; 27.5 µM (inactive) in the test with Hs-578T. The GI50 with IGROV-1 is 28.4 µM (inactive); in the test on MCF7, 25.1 µM (inactive); in the test with MDA-N, 17.3 µM (inactive); with Malme-3M it was 15.5 µM (inactive); with NCI-H226, 25.6 µM (inactive); with OVCAR-3, > 10 µM (inactive). Further, the GI50 with OVCAR-8 was 22.8 µM (inactive); in the test with PC-3, 29.7 µM (inactive); in the test on SF-539, 50.9 µM (inactive); with SNB-75, 23.3 µM (inactive); with SR, 24.4 µM (inactive); in the test on TK-10 it was 21.2 µM (inactive). Moreover, the GI50 in the test with U-251 is 25.8 µM (inactive).

For `COc1cc2[nH]c(=O)[nH]c2c2c(C)c[nH]c12`, the GI50 in the test on 786-0, in the test with A549, in the test with COLO 205, in the test on EKVX, in the test with HT-29 and in the test with Hs-578T was > 100 µM (inactive) throughout. Besides, the GI50 in the test on IGROV-1, with MCF7, in the test with MDA-N, in the test on Malme-3M, in the test on NCI-H226 and in the test with NCI-H522 was > 100 µM (inactive) in each case. Moreover, the GI50 with OVCAR-3, in the test with OVCAR-8, in the test on PC-3, with SNB-75, with SR and with TK-10 was > 100 µM (inactive) each time. For the same compound, the GI50 with U-251 is > 100 µM (inactive).

In the case of `COC(=O)/C=C(\S/C(=C(/c1ccc(OC)cc1)n1cc(C(=O)OC)c(C(=O)OC)n1)c1ccc(OC)cc1)C(=O)OC`, the GI50 with 786-0 is 5.36 µM (inactive); in the test on A549, 77.6 µM (inactive); in the test with COLO 205, 3.01 µM (inactive); with EKVX, 21.6 µM (inactive); in the test on HT-29, 8.04 µM (inactive); in the test with Hs-578T it was 47.9 µM (inactive). Besides, the GI50 in the test with IGROV-1 is 6.4 µM (inactive); in the test on MCF7 it was 5.62 µM (inactive); in the test on MDA-N it was 19.6 µM (inactive); with Malme-3M, 13.7 µM (inactive); in the test on NCI-H226, 48.6 µM (inactive); in the test with OVCAR-3 it was 3.42 µM (inactive). Also, the GI50 in the test on OVCAR-8 was 2.11 µM (inactive); in the test with PC-3, 26.6 µM (inactive); in the test on SF-539, 21.6 µM (inactive); in the test on SNB-75, 55.1 µM (inactive); in the test on SR, 2.77 µM (inactive); in the test with TK-10, 4.33 µM (inactive). In the test with U-251, the GI50 was 33.6 µM (inactive).

`COC(=O)c1c(C)cccc1/C=C1\Cc2cc(C)cc(C)c2C1=O`: the GI50 with 786-0 was 16.3 µM (inactive); in the test on A549 it was 76.4 µM (inactive); in the test with EKVX it was 37.6 µM (inactive); in the test with HT-29, 89.5 µM (inactive); in the test on Hs-578T it was 18.1 µM (inactive); in the test with IGROV-1, 65.8 µM (inactive). The GI50 was 25.8 µM (inactive) in the test with MCF7; > 100 µM (inactive) in the test on MDA-N; > 100 µM (inactive) with Malme-3M; 56.5 µM (inactive) with NCI-H226; 11.2 µM (inactive) in the test with NCI-H522; 50.6 µM (inactive) in the test on OVCAR-3. The GI50 in the test with OVCAR-8 is 63.8 µM (inactive); in the test on PC-3, > 100 µM (inactive); in the test with SF-539 it was 35.1 µM (inactive); in the test with SNB-75, 12.9 µM (inactive); in the test on SR, > 100 µM (inactive); in the test with TK-10, 27.2 µM (inactive). In the test on U-251, the GI50 is 15.3 µM (inactive).

Take `CC1(C)OC(=S)N(c2ccccc2)C12C=Cc1cc3ccccc3cc1O2` (stereo not given): the GI50 with 786-0, with A549, with COLO 205, with EKVX, in the test on HT-29 and in the test on Hs-578T was > 100 µM (inactive) in each case. Moreover, the GI50 was 6.28 µM (inactive) in the test with IGROV-1; > 100 µM (inactive) with MCF7; > 100 µM (inactive) with MDA-N; > 100 µM (inactive) in the test on NCI-H226; > 100 µM (inactive) with OVCAR-3; > 100 µM (inactive) with OVCAR-8. The GI50 with PC-3 is 44.2 µM (inactive); in the test on SNB-75 it was > 100 µM (inactive); in the test on SR, 9.46 µM (inactive); with TK-10, > 100 µM (inactive); in the test with U-251, > 100 µM (inactive).

Regarding `Clc1ccc(-c2cc(-c3cc4cc(Br)ccc4nc3Cl)on2)cc1`, the GI50 in the test on 786-0 is 18.9 µM (inactive); in the test on A549 it was 13.2 µM (inactive); with COLO 205 it was 8.28 µM (inactive); with EKVX, 4.93 µM (inactive); in the test on HT-29 it was 17.5 µM (inactive); in the test with Hs-578T, 22.8 µM (inactive). The GI50 in the test on IGROV-1 was 12.9 µM (inactive); in the test on MCF7, 13.1 µM (inactive); with MDA-N it was 11.8 µM (inactive); in the test on Malme-3M, 18.8 µM (inactive); in the test on NCI-H226, 13.3 µM (inactive); in the test with NCI-H522, 10.2 µM (inactive). Moreover, the GI50 in the test with OVCAR-3 is 10 µM (inactive); with OVCAR-8 it was 18.7 µM (inactive); in the test on PC-3, 16.5 µM (inactive); in the test on SF-539, 9.08 µM (inactive); in the test on SNB-75 it was 25.1 µM (inactive); with SR, 10.4 µM (inactive).

On to `CN(C)CC1COC2Cc3ccccc3C1O2` (stereo not given), for which the GI50 with 786-0, in the test on A549, with COLO 205, in the test with EKVX, with HT-29 and in the test with Hs-578T was > 100 µM (inactive) each time. For the same compound, the GI50 in the test on IGROV-1, with MCF7, with MDA-N, in the test on Malme-3M, in the test on NCI-H226 and in the test with NCI-H522 was > 100 µM (inactive) in each case. Moreover, the GI50 with OVCAR-3, in the test on OVCAR-8, with PC-3, in the test on SF-539, with SR and in the test with TK-10 was > 100 µM (inactive) each time. The GI50 in the test with U-251 was > 100 µM (inactive).

For the compound `O=Cc1cn(CCCCCCCCCCCCn2cc(C=O)c3ccccc32)c2ccccc12`, the GI50 in the test on 786-0 was > 100 µM (inactive); in the test on A549, 56 µM (inactive); in the test with COLO 205, > 100 µM (inactive); in the test on EKVX, 7.53 µM (inactive); with HT-29, > 100 µM (inactive); in the test with Hs-578T, 4.04 µM (inactive). Moreover, the GI50 with IGROV-1 was > 100 µM (inactive); with MCF7, 2.62 µM (inactive); in the test with MDA-N it was > 100 µM (inactive); in the test on Malme-3M, > 100 µM (inactive); with NCI-H226, 57.3 µM (inactive); in the test on NCI-H522, 38.3 µM (inactive). In addition, the GI50 in the test on OVCAR-3 was > 100 µM (inactive); in the test with OVCAR-8, > 100 µM (inactive); with PC-3, 33.3 µM (inactive); with SF-539, > 100 µM (inactive); with SR, 11.7 µM (inactive); in the test on TK-10, > 100 µM (inactive). The GI50 with U-251 was > 100 µM (inactive).
